Assay results published in PubChem BioAssay (NCI).
“And” between values parts separate entries of the source, which are not always exact repeats. Identical values can stand only once.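 In this assay, cells in 96-well plates receive the compound at five concentrations for 48 hours. Endpoints are linearly interpolated between the surrounding concentrations. Here, GI50 denotes the concentration required for 50% inhibition of growth. At the TGI there is no net growth.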

Tests used:
Test in all cases: NCI tumour cell line growth inhibition, 48 h
[1] = test system: 786-0 renal
[2] = test system: BT-549 breast
[3] = test system: MDA-MB-435
[4] = test system: MDA-N
[5] = test system: PC-3 prostate
[6] = test system: T-47D breast
[7] = test system: TK-10 renal
[8] = test system: DMS 114 small cell lung
[9] = test system: DMS 273 small cell lung
[10] = test system: KM20L2 colon
[11] = test system: LXFL 529 NSCLC
[12] = test system: M19-MEL melanoma
[13] = test system: SNB-78 CNS
[14] = test system: DLD-1 colon
[15] = test system: RXF-631 renal
[16] = test system: XF 498 CNS

SMILES | TGI [1] | TGI [2] | TGI [3] | TGI [4] | TGI [5] | TGI [6] | TGI [7] | TGI [8] | TGI [9] | TGI [10] | TGI [11] | TGI [12] | TGI [13] | TGI [14] | TGI [15] | TGI [16] | GI50 [2] | GI50 [3] | GI50 [5] | GI50 [7]
c1ccc(C[n+]2cccc(-c3cc4ccccc4[nH]3)c2)cc1 | > 100 µM | 36.6 µM | 43.7 µM | 37.6 µM | > 100 µM | > 100 µM | > 100 µM |  |  |  |  |  |  |  |  |  |  |  |  | 
CCCCC(=O)Oc1ccc2c(C)cc(=O)oc2c1 | > 100 µM | > 100 µM | > 100 µM | > 100 µM | > 100 µM | > 100 µM | > 100 µM |  |  |  |  |  |  |  |  |  |  |  |  | 
COc1ccc(Cc2nccc3cc(OC)c(OC)cc23)cc1OC | > 100 µM | > 100 µM | > 100 µM | > 100 µM | > 100 µM | > 100 µM | > 100 µM |  |  |  |  |  |  |  |  |  |  |  |  | 
c1ccc(-c2nnc(-c3nsc4ccccc34)o2)cc1 |  |  |  |  |  |  | > 100 µM | > 100 µM | > 100 µM | > 100 µM | > 100 µM | > 100 µM | > 100 µM |  |  |  |  |  |  | 
CCOC(=O)C1=C(C)N(NC(N)=O)C2(O)CCCC(=O)C12C (stereo not drawn) |  |  |  |  |  |  | > 100 µM | > 100 µM | > 100 µM | > 100 µM | > 100 µM |  | > 100 µM | > 100 µM | > 100 µM | > 100 µM |  |  |  | 
CC(C)C1OC(/C=C/c2ccccc2)OCC1(C)C (stereo not drawn) | > 100 µM | > 100 µM | > 100 µM | > 100 µM | > 100 µM | > 100 µM | 80.8 µM |  |  |  |  |  |  |  |  |  |  |  |  | 
O=C(O)c1oc(C(=O)O)c(C(=O)O)c1C(=O)O | > 100 µM | > 100 µM |  | > 100 µM | > 100 µM | > 100 µM | > 100 µM |  |  |  |  |  |  |  |  |  |  |  |  | 
COc1cccc(CC2Cc3ccccc3CC(=O)N2)c1 (stereo not drawn) |  | 92.1 µM | > 100 µM | > 100 µM | > 100 µM | > 100 µM | > 100 µM |  |  |  |  |  |  |  |  |  |  |  |  | 
CCCCS(=O)(=O)Nc1ccc(Nc2c3ccccc3nc3ccccc23)c(OC)c1 |  |  |  |  |  |  |  |  | 3.37 µM | 11.9 µM |  | 19.6 µM | 18.9 µM | 24.4 µM |  | 10.5 µM |  |  |  | 
N=C(N)SCc1cccc2c(=O)cc(-c3ccccc3)oc12 | 23.3 µM | 28.2 µM | 21.5 µM | 21.3 µM | 17.3 µM | 15.9 µM | 26.8 µM | 31.1 µM | 27.7 µM | 45.6 µM |  | 49.9 µM | 31.7 µM | 48.5 µM | 28.5 µM | 28.4 µM |  |  |  | 
C/C(=C\c1ccc(Cl)c(Cl)c1)[N+](=O)[O-] | 3.18 µM | 20.1 µM | 3.71 µM and 4.55 µM |  | 3.81 µM |  | 3.19 µM and 3.6 µM |  |  |  |  |  |  |  |  |  | 7.55 µM | 1.84 µM | 1.85 µM | 1.67 µM
OC1CN2Cc3cc4c(cc3[C@]13C=C[C@@H](O)CC23)OCO4 (stereo partly drawn) | > 100 µM | > 100 µM | > 100 µM | > 100 µM | > 100 µM | 31.2 µM | 93.3 µM |  |  |  |  |  |  |  |  |  |  |  |  | 
NC(CCOCCP(=O)(O)CCOCCC(N)C(=O)O)C(=O)O (stereo not drawn) |  |  | > 100 µM |  |  | > 100 µM | > 100 µM |  |  |  |  |  |  |  |  |  |  |  |  | 
O=C(O)C12CCCC(CCC1)C2 |  |  |  |  |  |  | > 100 µM | > 100 µM | > 100 µM |  | > 100 µM |  | > 100 µM | > 100 µM | > 100 µM | > 100 µM |  |  |  | 
O=C1OCc2cccc3c2-c2c1cccc2C(=O)OC3 |  |  |  |  |  |  | > 100 µM | > 100 µM |  | > 100 µM |  | > 100 µM | > 100 µM | > 100 µM |  |  |  |  |  | 
CC(C)NCCC(O)c1cc2ccccc2o1 (stereo not drawn) | > 100 µM | > 100 µM | > 100 µM | > 100 µM | > 100 µM | > 100 µM | > 100 µM |  |  |  |  |  |  |  |  |  |  |  |  | 
O=C1/C(=C/c2ccc(Cl)cc2)N=C(c2ccccc2)N1c1ccc(S(=O)(=O)Nc2nccs2)cc1 | > 100 µM |  | 76.4 µM | > 100 µM | > 100 µM | 75.2 µM | > 100 µM |  |  |  |  |  |  |  |  |  |  |  |  | 
